Results from patent USRE39198E1, “Heteroarylpiperidines, pyrrolidines and piperazines and their use as antipsychotics and analgesics” (Aventis Pharmaceuticals Inc., priority 1989, dated 2006).

| melting point [°C] | Structure (SMILES) |
| --- | --- |
| 229 to 231 | Cl.O=C1[C@H]2CCCC[C@H]2C(=O)N1CCCCN1CCC(c2noc3cc(F)ccc23)CC1 |
| 154 to 155 | CC(=O)OCCN1CCC(c2noc3cc(F)ccc23)CC1.O=C(O)/C=C/C(=O)O |
| 157 to 158 | COCCN1CCC(c2noc3cc(F)ccc23)CC1.O=C(O)/C=C/C(=O)O |
| 142 to 143 | CC(=O)OCCCCN1CCC(c2noc3cc(F)ccc23)CC1.O=C(O)/C=C/C(=O)O |
| 131 to 132 | O=C(O)/C=C/C(=O)O.OCCCCN1CCC(c2noc3cc(F)ccc23)CC1 |
| 161 to 162 | Fc1ccc2c(C3CCN(CCC4OCCCO4)CC3)noc2c1.O=C(O)/C=C/C(=O)O |
| 108 to 110 | CCCCCCCCCC(=O)NCCN1CCC(c2noc3cc(F)ccc23)CC1.O=C(O)/C=C/C(=O)O |
| 132 to 133 | CC(=O)NCCN1CCC(c2noc3cc(F)ccc23)CC1.O=C(O)/C=C/C(=O)O |
| 116 to 118 | CC(=O)OCCNCCN1CCC(c2noc3cc(F)ccc23)CC1.O=C(O)/C=C/C(=O)O |
| 114 to 115 | C[C@@H](CO)CN1CCC(c2noc3cc(F)ccc23)CC1.O=C(O)/C=C/C(=O)O |
| 118 to 120 | CC(=O)OC[C@H](C)CN1CCC(c2noc3cc(F)ccc23)CC1.O=C(O)/C=C/C(=O)O |
| 144 to 145 | CC(C)(CO)CN1CCC(c2noc3cc(F)ccc23)CC1.O=C(O)/C=C/C(=O)O |
| 156 to 158 | CC(C)(O)CCN1CCC(c2noc3cc(F)ccc23)CC1.O=C(O)/C=C/C(=O)O |
| 135 to 136 | CCOC(=O)CCN1CCC(c2noc3cc(F)ccc23)CC1.O=C(O)/C=C/C(=O)O |
| 139 to 141 | CCOC(C)c1ccc(OCCCN2CCC(c3noc4cc(F)ccc34)CC2)c(OC)c1.Cl (centres unmarked) |
| 150 to 152 | CCc1ccc(OCCCN2CCC(c3noc4cc(F)ccc34)CC2)cc1OC.Cl |
| 208 to 210 | CC(=O)c1ccc(O)c(OC/C=C/CN2CCC(c3noc4cc(F)ccc34)CC2)c1.Cl |
| 242 to 245 | Cl.O=C1[C@H]2CCCC[C@H]2C(=O)N1CCCN1CCC(c2noc3cc(F)ccc23)CC1 |
| 234 to 237 | Cl.Cl.NCCCCN1CCC(c2noc3cc(F)ccc23)CC1 |
| 231 to 234 | Cl.Cl.NCCCN1CCC(c2noc3cc(F)ccc23)CC1 [1-(3-Aminopropyl)-4-(6-fluoro-1,2-benzisoxazol-3-yl)-piperidine dihydrochloride] |
| 221 to 223 | COc1cc(C(C)=O)ccc1OCCCN1CCC(c2nsc3cc(F)ccc23)CC1.Cl [1-[4-[3-[4-(6-Fluoro-1,2-benzisothiazol-3-yl)-1-piperidinyl]propoxy]-3-methoxyphenyl]ethanone hydrochloride] |
| 109 to 110 | CCCCCCCCCC(=O)OCCCCN1CCC(c2noc3cc(F)ccc23)CC1.O=C(O)/C=C/C(=O)O [4-[4-(6-Fluoro-1,2-benzisoxazol-3-yl)-1-piperidinyl]butyl decanoate fumarate] |
| 140 to 142 | OCCCN1CCC(c2noc3cc(F)ccc23)CC1 [6-Fluoro-3-[1-(3-hydroxypropyl)-4-piperidinyl]-1,2-benzisoxazole] |
| 57 to 59 | COc1cc(C(C)=O)ccc1OC/C=C\CN1CCC(c2noc3cc(F)ccc23)CC1 [(Z)-1-[4-[[4-[4-(6-Fluoro-1,2-benzisoxazol-3-yl)-1-piperidinyl]-2-butenyl]oxy]-3-methoxyphenyl]ethanone] |

| melting point [°C] | Structure (SMILES) |
| --- | --- |
| 93 to 96 | COc1cc(C(C)=O)ccc1OCCCN1CCC(c2nsc3ccccc23)CC1 [Example 10, 1-[4-[3-[4-(1,2-Benzisothiazol-3-yl)-1-piperidinyl]-propoxy]-3-methoxyphenyl]ethanone] |
| 135 to 137 | COc1cc(C(C)=O)ccc1OCCCN1CCN(c2n[nH]c3cc(F)ccc23)CC1 [Example 12, 1-[4-[3-[4-(6-Fluoro-1H-indazol-3-yl)-1-piperazinyl]-propoxy]-3-methoxyphenyl]ethanone] |
| 171 to 173 | COc1cc(C(C)=O)ccc1OCCCN1CCC(c2n[nH]c3ccccc23)CC1 [Example 14, 1-[4-[3-[4-(1H-Indazol-3-yl)-1-piperidinyl]propoxy]-3-methoxyphenyl]ethanone] |
| 202 to 204 | COc1cc(C(C)=O)ccc1OCCCN1CCC(c2n[nH]c3cc(F)ccc23)CC1 [Example 28, 1-[4-[3-[4-(6-Fluoro-1H-indazol-3-yl)-1-piperidinyl]-propoxy]-3-methoxyphenyl]ethanone] |
| 98 to 100 | COc1cc(C(C)=O)ccc1OCCN1CCN(c2nsc3ccccc23)CC1 [Example 39, 1-[4-[2-[4-(1,2-Benzisothiazol-3-yl)-1-piperazinyl]ethoxy]-3-methoxyphenyl]ethanone] |
| 154 to 156 | COc1cc(C(C)=O)ccc1OCCN1CCN(c2n[nH]c3cc(Cl)ccc23)CC1 [Example 41, 1-[4-[2-[4-(6-Chloro-1H-indazol-3-yl)-1-piperazinyl]ethoxy]-3-methoxyphenyl]ethanone] |
| 118 to 120 | CC(=O)Nc1ccccc1OCCCN1CCC(c2noc3cc(F)ccc23)CC1 [Example 61, N-[2-[3-[4-(6-fluoro-1,2-benzoisoxazol-3-yl)-1-piperidinyl]propoxy]phenyl]acetamide] |
| 115 to 117 | Nc1cccc(OCCCN2CCC(c3noc4cc(F)ccc34)CC2)c1 [Example 71, 3-[3-[4-(6-Fluoro-1,2-benzisoxazol-3-yl)-1-piperidinyl]propoxy]aniline] |
| 109 to 111 | COc1ccc(NC(C)=O)cc1OCCCN1CCC(c2nsc3cc(F)ccc23)CC1 [Example 74, N-[3-[3-[4-(6-Fluoro-1,2-benzisothiazol-3-yl)-1-piperidinyl]propoxy]-4-methoxyphenyl]acetamide] |
| 91 to 93 | COc1cc(C(C)=O)ccc1OC/C=C/CN1CCC(c2noc3cc(F)ccc23)CC1 [Example 81, (E)-1-[4-[[4-[4-(6-Fluoro-1,2-benzisoxazol-3-yl)-1-piperidinyl]-2-butenyl]oxy]-3-methoxyphenyl]ethanone] |
| 124 to 125 | CC(=O)c1ccc(OCc2ccccc2)c(OC/C=C/CN2CCC(c3noc4cc(F)ccc34)CC2)c1 [Example 85, (E)-1-[3-[[4-[4-(6-Fluoro-1,2-benzisoxazol-3-yl)-1-piperidinyl]-2-butenyl]oxy]-4-benzyloxyphenyl]ethanone] |
| 86 to 87 | Fc1ccc2c(C3CCN(CC4COc5ccccc5O4)CC3)noc2c1 (centres unmarked) [Example 91, 2-[4-(6-Fluoro-1,2-benzisoxazol-3-yl)-1-piperidinyl]methyl-1,4-benzodioxan] |
| 152 to 154 | CC(=O)c1ccc2c(c1)oc(=O)n2CCCN1CCC(c2noc3cc(F)ccc23)CC1 [Example 94, N-[3-[4-(6-Fluoro-1,2-benzisoxazol-3-yl)-1-piperidinyl]propyl]-6-acetyl-2-benzoxazolinone] |
| 144 to 146 | O=C1c2ccccc2C(=O)N1CCCCN1CCC(c2noc3cc(F)ccc23)CC1 [Example 98, N-[4-[4-(6-Fluoro-1,2-benzisoxazol-3-yl)-1-piperidinyl]butyl]phthalimide] |
| 150 to 152 | CC(=O)c1ccc(NCCCN2CCC(c3noc4cc(F)ccc34)CC2)c(O)c1 [Example 111, 1-[4-[3-[4-(6-Fluoro-1,2-benzisoxazol-3-yl)-1-piperidinyl]propylamino]-3-hydroxyphenyl]ethanone] |
| 243 to 245 | Fc1ccc2c(C3CCN(CCCCBr)CC3)noc2c1 [Example 114, 4-[4-(6-Fluoro-1,2-benzisoxazol-3-yl)-1-piperidinyl]butyl bromide] |
| 131 to 132 | Fc1ccc2c(C3CCN(CCN4CCOCC4)CC3)noc2c1 [Example 116, N-[2-[4-(6-Fluoro-1,2-benzisoxazol-3-yl)-1-piperidinyl]ethyl]morpholine] |
| 98 to 100 | COC(C)c1ccc(OCCCN2CCC(c3noc4cc(F)ccc34)CC2)c(O)c1 (centres unmarked) [Example 139, 3-[1-[3-[4-(1-Methoxyethyl)-2-hydroxyphenoxyl]propyl]-4-piperidinyl]-6-fluoro-1,2-benzisoxazole] |
| 118 to 121 | Fc1ccc2c(C3CCN(CCCOc4ccc5[nH]ccc5c4)CC3)noc2c1 [Example 140, 6-Fluoro-3-[1-[3-[(1H-indol-5-yl)oxy]propyl]-4-piperidinyl]-1,2-benzisoxazole] |
| 135 to 137 | CC(=O)c1ccc(OCCCN2CCC(c3nsc4cc(F)ccc34)CC2)c(O)c1 [Example 144, 1-[4-[3-[4-(6-Fluoro-1,2-benzisothiazol-3-yl)-1-piperidinyl]propoxy]-3-hydroxyphenyl]ethanone] |
| 113 to 115 | COc1cc(C(C)O)ccc1OCCCN1CCC(c2nsc3cc(F)ccc23)CC1 (stereo not drawn) [Example 145, 4-[3-[4-(6-Fluoro-1,2-benzisothiazol-3-yl)-1-piperidinyl]propoxy]-3-methoxy-alpha-methylbenzenemethanol] |
| 132 to 134 | O=C1c2cc(Cl)c(Cl)cc2C(=O)N1CCN1CCC(c2noc3cc(F)ccc23)CC1 [Example 151, N-[2-[4-(6-Fluoro-1,2-benzisoxazol-3-yl)-1-piperidinyl]ethyl]-4,5-dichlorophthalimide] |
| 163 to 164 | O=C1c2c(Cl)ccc(Cl)c2C(=O)N1CCN1CCC(c2noc3cc(F)ccc23)CC1 [Example 153, N-[2-[4-(6-Fluoro-1,2-benzisoxazol-3-yl)-1-piperidinyl]ethyl]-3,6-dichlorophthalimide] |

| Structure (SMILES) | melting point [°C] |
| --- | --- |
| COc1cc(C(C)=O)ccc1OCCCCN1CCC(c2n[nH]c3ccccc23)CC1 [Example 20, 1-[4-[4-[4(1H-indazol-3-yl)-1-piperidinyl]butoxy]-3-methoxyphenyl]ethanone] | 133 to 135 |
| COc1cc(C(C)=O)ccc1OCCCCN1CCN(c2n[nH]c3cc(Cl)ccc23)CC1 [Example 36, 1-[4-[4-[4-(6-Chloro-1H-indazol-3-yl)-1-piperazinyl]butoxy]-3-methoxyphenyl]ethanone] | 189 to 191 |
| COc1cc(C(C)=O)ccc1OCCCCN1CCC(c2nsc3ccccc23)CC1 [Example 46, 1-[4-[4-[4-(1,2-Benzisothiazol-3-yl)-1-piperidinyl]butoxy]-3-methoxyphenyl]ethanone] | 78 to 80 |
